{
  "source": "patent US9345682B2",
  "about": "“Inhibition of STAT3 signal transduction for human cancer therapy” (University of South Florida, priority 1999, dated 2016)",
  "key": {"Bcl-xL": {"test_system": "Bcl-xL", "test": "Bcl-xL expression (RT-PCR, Western blot) in U266 cells", "format": "cell-based, human", "set-up": "dose or concentration left out as unconfirmed", "method": "(§1) Cells are lysed in a buffer composed of 50 mM Tris-Cl, pH 7.4, 5 mM EDTA, 150 mM NaCl, and 0.5% Triton-X 100 containing 1 mg/ml leupeptin and aprotinin, and 1 mM PMSF. Protein content of the cell lysates is quantified by the Bradford assay (Bio-Rad), and […] total protein is dissolved in Laemmli SDS-PAGE sample buffer prior to separation by 10% SDS-PAGE. Proteins are transferred to PVDF membrane and Western blot analysis is performed by standard techniques with ECL detection (Amersham). The Bcl-xL antibody, clone 124 (Dako), is used at a 1:2000 dilution. The Bcl-xL, antibody, clone S-18 (Santa Cruz Biotechnology), is used at a 1:500 dilution. Blots are quantified by densitometry and expression levels were normalized to b-actin (Sigma).\n(§2) Total RNA is isolated by lysis in guanidine isothiocyanate followed by centrifugation through a cesium chloride gradient. cDNA is prepared from 200 ng of total RNA in a […] reaction with AMV-RT (Boehringer-Mannheim). […] Tem ml of PCR products are electrophoresed on a 5% acrylamide gel and quantified by phosphorimaging using ImageQuant software (Molecular Dynamics)."}, "Bcl-2": {"test_system": "Bcl-2", "test": "Bcl-2 expression (RT-PCR, Western blot) in U266 cells", "format": "cell-based, human", "conditions": "AG490", "method": "as §1, §2"}, "[1]": {"test_system": "Bcl-xL overexpressing U266 cells", "test": "Drug-induced apoptosis in U266 cells overexpressing Bcl-xL", "format": "cell-based, human", "conditions": "stable U266 clones overexpressing Bcl-xL; 24 h for melphalan and mitoxantrone", "method": "FIG. 23 Enforced Overexpression of Bcl-x Confers Resistance to Chemotherapy. Panel A: U266 cells are transfected with a CMV expression vector encoding Bcl-x, tagged with the FLAG epitope. Several stable, independent clones overexpressing Bcl-xL, as well as empty vector controls (Neo), are isolated and analyzed by Western blot with antibodies to Bcl-xL, or the FLAG epitope tag. B: The indicated cell lines are incubated with either melphalan (LPAM) or mitoxantrone for 24 h, and apoptosis is monitored by AnnexinV-FITC staining and flow cytometry. Overexpression of Bcl-xL protects the cells from chemotherapy-induced apoptosis.\nThese Bcl-xL overexpressing cells are resistant to apoptosis induced by AG490, as predicted since the ectopic Bcl-xL is expressed from a CMV promoter and is thus independent of JAK-STAT signaling. […] These findings support one embodiment of the present invention, that Bcl-x confers resistance to chemotherapy-induced apoptosis, and therefore that inhibition of STAT3 signaling promotes chemotherapy-induced apoptosis."}, "MOPC tumors": {"test_system": "MOPC tumors", "test": "TUNEL assay of MOPC tumors", "format": "in vivo, BALB/c mice", "conditions": "regressing MOPC tumors", "method": "Terminal deoxynucleotidyltransferase-mediated dUTP-Digoxigenin nick-end-labeling (TUNEL) assay. MOPC tumors that receive either AG-490 or 50% DMSO treatment are used for this assay. Three-μm sections from paraffinized tissues are dewaxed and rehydrated according to standard protocols. After incubation with proteinase K (30 min at 21° C.), the TUNEL reaction mixture (Boehringer Mannheim, Indianapolis, Ind.) is added to rinsed slides, which are incubated in a humidified chamber for […] at 37° C. This is followed by incubating with Converter-AP (50 ml) and substrate solution (50 ml). The reaction is visualized by light microscopy."}, "splenocytes": {"test_system": "splenocytes", "test": "IL-12-induced IFN-g production by splenocytes ex vivo", "format": "in vivo", "conditions": "mice treated i.p. with AG-490 (0.5 mg) daily 4 days, rIL-12 last two days", "method": "Mice are treated daily with i.p. injections of […] of AG-490 (0.5 mg) or DMSO vehicle (50%) for a total of 4 days. During the last two days of AG-490 or DMSO treatment, daily i.p. injection of 400 ng of recombinant IL-12 (rIL-12) (Genetics Institute, Cambridge, Mass.) is also given simultaneously with either AG-490 or DMSO. Two days after the last treatment of AG-490, single cell suspensions of splenocytes are prepared from individual mice. The splenocytes are treated with 100 U/ml rIL-2 to induce IFN-g production. IFN-g ELISA (Genzyme, Cambridge, Mass.) is performed as described previously (Tan, et al., 1996, Cancer Res 56:3399)."}, "peritoneal macrophages": {"test_system": "peritoneal macrophages", "test": "Cytostatic activity of peritoneal macrophages against J558 myeloma cells", "set-up": "species or system mice", "conditions": "daily i.p. in vivo treatment", "method": "Peritoneal macrophage preparation and cytostatic test. […] The peritoneal macrophage population is enriched by adhesion on plastic plates followed by washing and aspiration of non-adherent cells. The percentage of macrophages among adherent cells is estimated by morphological criteria using Giemsa staining (>95%). Antitumor cytostatic activity of macrophages is determined by inhibition of DNA synthesis of target tumor cells (J558 myeloma cells). Briefly, macrophage-sensitive J558 cells (2×10^4/well) are co-cultured for 48 hours with and without macrophages (2×10^5/well) prepared from individual mice. To estimate DNA synthesis, the cells are pulsed with ^3H-thymidine (^3H-TdR) ([…]) during the last 6 hours of incubation. ^3H-TdR incorporation is determined using a liquid scintillation b-counter (Pharmacia Wallac, Finland). Results are expressed as percentage of inhibition of ^3H-TdR incorporation by J558 cells incubated with macrophages compared to ^3H-TdR incorporation by J558 cells incubated in medium alone."}, "[2]": {"test_system": "IL-12-activated peritoneal macrophages", "test": "Viability of IL-12-activated peritoneal macrophages (MTT)", "format": "cell-based, mice", "conditions": "50 mM AG-490", "method": "In vitro IL-12 activation and AG-490 treatment of macrophages. Peritoneal macrophages (2×10^5/well) are incubated in medium supplemented with either PBS, or rIL-12 (2 ng/ml), or AG-490 ([…]). Forty-eight hours later, the cultures are renewed by addition of fresh medium with either AG-490 or rIL-12 or PBS. Activation of macrophages is determined by nitric oxide production. Macrophage viability is determined by cleavage of tetrazolium salt in an MTT assay."}},
  "data": [
    {"molecule": "N#C/C(=C\\c1ccc(O)c(O)c1)C(=O)NCc1ccccc1", "note": "[AG490]", "values": [
      {"measurement": "bcl-x mRNA expression", "setting": "Bcl-xL; AG490, 24 hours", "value": "significant reduction"},
      {"measurement": "Bcl-xL protein levels", "setting": "Bcl-xL; AG490, 30 hours", "value": "nearly absent"},
      {"measurement": "expression of Bcl-2", "setting": "Bcl-2", "value": "no effect"},
      {"measurement": "apoptosis induced in Bcl-xL overexpressing cells", "setting": "[1]", "value": "resistant"},
      {"measurement": "apoptotic tumor cells (TUNEL)", "setting": "MOPC tumors", "value": "high numbers of apoptotic cells"},
      {"measurement": "IL-12-induced IFN-g production by splenocytes", "setting": "splenocytes", "value": "slight suppression"},
      {"measurement": "IL-12-induced cytostatic activity of peritoneal macrophages against target tumor cells", "setting": "peritoneal macrophages", "value": "does not influence"},
      {"measurement": "cell death of IL-12-activated peritoneal macrophages", "setting": "[2]", "value": "no cell death is detected"}
    ]}
  ]
}
